According to ChEMBL document CHEMBL4411322 (J Med Chem, 2019):
Values belong to the compound of their own block, whether it stands above or below them. Non-standard residues stand in square brackets, D forms with d. Residues, ends and D or L forms follow the SMILES beside them. dNMeF = CN[C@H](Cc1ccccc1)C(=O)O

Legend:
Integrin alpha-V/beta-8 = Integrin alpha-V/beta-8 (Homo sapiens, UniProt P06756+P26012); test: Inhibition of LAP binding to human integrin alphavbeta8 receptor after 1 hr by solid-phase binding assay; type: protein-complex assay
Integrin alpha-V/beta-6 = Integrin alpha-V/beta-6 (Homo sapiens, UniProt P06756+P18564); test: Inhibition of LAP binding to human integrin alphavbeta6 receptor after 1 hr by solid-phase binding assay; type: protein-complex assay
Homo sapiens = species: Homo sapiens; test: Selectivity ratio of IC50 for human integrin alphavbeta6 receptor to IC50 for human integrin alphavbeta8 receptor

Sequence of Integrin alpha-V/beta-8 (P06756 31-889 limits assumed): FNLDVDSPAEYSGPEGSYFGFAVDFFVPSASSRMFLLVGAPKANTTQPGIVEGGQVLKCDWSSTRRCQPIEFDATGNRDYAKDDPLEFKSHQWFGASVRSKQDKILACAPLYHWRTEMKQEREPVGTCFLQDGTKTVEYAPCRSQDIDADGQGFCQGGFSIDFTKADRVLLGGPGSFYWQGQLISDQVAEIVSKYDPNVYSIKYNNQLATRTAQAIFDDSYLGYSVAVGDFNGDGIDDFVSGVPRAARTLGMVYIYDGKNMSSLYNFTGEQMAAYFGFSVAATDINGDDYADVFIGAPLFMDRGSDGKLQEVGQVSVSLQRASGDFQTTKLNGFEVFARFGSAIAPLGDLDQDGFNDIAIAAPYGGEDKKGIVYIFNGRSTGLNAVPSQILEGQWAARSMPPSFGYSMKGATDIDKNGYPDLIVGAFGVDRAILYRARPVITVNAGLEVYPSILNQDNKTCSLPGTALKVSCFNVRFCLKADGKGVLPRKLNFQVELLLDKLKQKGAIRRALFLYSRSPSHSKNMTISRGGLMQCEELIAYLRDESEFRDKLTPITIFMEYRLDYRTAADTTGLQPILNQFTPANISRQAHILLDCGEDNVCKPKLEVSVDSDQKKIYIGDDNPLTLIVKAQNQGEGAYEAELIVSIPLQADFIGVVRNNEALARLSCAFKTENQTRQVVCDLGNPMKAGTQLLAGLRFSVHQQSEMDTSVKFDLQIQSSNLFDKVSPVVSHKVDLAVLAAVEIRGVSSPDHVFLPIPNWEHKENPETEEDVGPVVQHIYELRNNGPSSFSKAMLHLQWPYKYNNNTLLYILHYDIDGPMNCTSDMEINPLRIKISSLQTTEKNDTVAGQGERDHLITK
Sequence of Integrin alpha-V/beta-8 (P06756 891-1048 limits assumed): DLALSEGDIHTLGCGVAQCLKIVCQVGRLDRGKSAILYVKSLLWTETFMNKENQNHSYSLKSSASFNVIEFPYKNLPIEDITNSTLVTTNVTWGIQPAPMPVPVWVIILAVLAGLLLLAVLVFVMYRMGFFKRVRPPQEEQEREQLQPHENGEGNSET
Sequence of Integrin alpha-V/beta-8 (P26012 43-769 limits assumed): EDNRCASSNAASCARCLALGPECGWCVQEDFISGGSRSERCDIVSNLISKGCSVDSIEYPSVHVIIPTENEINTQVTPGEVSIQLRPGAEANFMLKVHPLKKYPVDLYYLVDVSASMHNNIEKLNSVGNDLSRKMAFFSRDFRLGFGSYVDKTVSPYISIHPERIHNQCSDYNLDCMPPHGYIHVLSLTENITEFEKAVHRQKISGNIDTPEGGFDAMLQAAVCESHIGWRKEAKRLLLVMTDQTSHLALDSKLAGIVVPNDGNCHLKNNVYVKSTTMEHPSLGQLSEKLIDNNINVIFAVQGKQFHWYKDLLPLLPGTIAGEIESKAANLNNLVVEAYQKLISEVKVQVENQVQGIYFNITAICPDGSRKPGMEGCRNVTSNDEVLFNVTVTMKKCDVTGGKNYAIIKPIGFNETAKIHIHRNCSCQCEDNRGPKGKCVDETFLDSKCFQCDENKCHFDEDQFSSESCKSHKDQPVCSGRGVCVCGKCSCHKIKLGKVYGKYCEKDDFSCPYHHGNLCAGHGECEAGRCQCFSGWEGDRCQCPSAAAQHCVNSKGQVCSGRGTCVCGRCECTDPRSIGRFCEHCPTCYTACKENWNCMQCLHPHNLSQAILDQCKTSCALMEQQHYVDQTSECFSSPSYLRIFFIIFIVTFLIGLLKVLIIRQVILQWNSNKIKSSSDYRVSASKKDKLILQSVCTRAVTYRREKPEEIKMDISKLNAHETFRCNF
Sequence of Integrin alpha-V/beta-6 (P06756 31-889 limits assumed): as the sequence (P06756 31-889 limits assumed) above
Sequence of Integrin alpha-V/beta-6 (P06756 891-1048 limits assumed): as the sequence (P06756 891-1048 limits assumed) above
Sequence of Integrin alpha-V/beta-6 (P18564 22-788 limits assumed): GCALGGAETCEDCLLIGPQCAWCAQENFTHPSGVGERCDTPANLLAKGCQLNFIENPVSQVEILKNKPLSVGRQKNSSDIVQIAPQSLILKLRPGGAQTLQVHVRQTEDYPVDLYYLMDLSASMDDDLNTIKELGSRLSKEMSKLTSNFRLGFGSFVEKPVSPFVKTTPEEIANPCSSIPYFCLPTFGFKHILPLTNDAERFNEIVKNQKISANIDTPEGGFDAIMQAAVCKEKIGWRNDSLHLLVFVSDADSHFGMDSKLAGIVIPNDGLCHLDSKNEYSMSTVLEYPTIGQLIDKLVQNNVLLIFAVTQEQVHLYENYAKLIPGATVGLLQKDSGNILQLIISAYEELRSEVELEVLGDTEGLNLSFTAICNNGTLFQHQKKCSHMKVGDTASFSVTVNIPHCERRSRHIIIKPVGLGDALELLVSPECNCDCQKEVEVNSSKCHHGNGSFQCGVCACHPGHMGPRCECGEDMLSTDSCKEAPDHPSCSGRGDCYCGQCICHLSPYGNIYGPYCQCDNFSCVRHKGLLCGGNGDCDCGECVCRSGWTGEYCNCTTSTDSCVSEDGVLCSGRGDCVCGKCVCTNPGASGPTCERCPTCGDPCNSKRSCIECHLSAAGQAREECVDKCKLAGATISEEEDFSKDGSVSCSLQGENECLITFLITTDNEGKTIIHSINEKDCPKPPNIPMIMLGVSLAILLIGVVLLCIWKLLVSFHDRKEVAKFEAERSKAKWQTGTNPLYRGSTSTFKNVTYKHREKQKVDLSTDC

SMILES: C[C@@H]1NC(=O)[C@@H]2CCCN2C(=O)[C@H]2CCCN2C(=O)[C@H](Cc2ccccc2)NC(=O)[C@H](CC(=O)O)NC(=O)CNC(=O)[C@H](CCCNC(=N)N)NC(=O)[C@H](Cc2ccccc2)NC1=O
IC50 (Integrin alpha-V/beta-8; read-out: IC50): 1150 nM | IC50 (Integrin alpha-V/beta-6; read-out: IC50): 324 nM

SMILES: CC(C)C[C@@H]1NC(=O)[C@H](CC(=O)O)NC(=O)CNC(=O)[C@H](CCCNC(=N)N)NC(=O)[C@H](C)NC(=O)[C@H](C)NC(=O)[C@@H]2CCCN2C(=O)[C@H]2CCCN2C1=O
Ratio IC50 (Homo sapiens): 14.1 | IC50 (Integrin alpha-V/beta-8; read-out: IC50): 8.1 nM | IC50 (Integrin alpha-V/beta-6; read-out: IC50): 114 nM

SMILES: CC(C)C[C@@H]1NC(=O)[C@H](CC(=O)O)NC(=O)[C@H]([C@@H](C)O)NC(=O)[C@H](CCCNC(=N)N)NC(=O)[C@H](C)NC(=O)[C@@H]2CCCN2C(=O)[C@H]2CCCN2C(=O)[C@H](CC(C)C)NC(=O)[C@H](C)NC(=O)[C@H](C)NC1=O
IC50 (Integrin alpha-V/beta-8; read-out: IC50): 1290 nM | IC50 (Integrin alpha-V/beta-6; read-out: IC50): 264 nM

SMILES: CC(C)C[C@@H]1NC(=O)[C@H](CC(=O)O)NC(=O)CNC(=O)[C@H](CCCNC(=N)N)NC(=O)[C@@H](c2ccccc2)NC(=O)[C@H](C)NC(=O)[C@@H]2CCCN2C(=O)[C@H]2CCCN2C1=O
IC50 (Integrin alpha-V/beta-8; read-out: IC50): 90.3 nM | IC50 (Integrin alpha-V/beta-6; read-out: IC50): 48.4 nM

SMILES: CC(C)C[C@@H]1NC(=O)[C@H](C)NC(=O)[C@@H]2CCCN2C(=O)[C@@H](C(C)C)N(C)C(=O)[C@H](CC(C)C)NC(=O)[C@H](CC(=O)O)NC(=O)CNC(=O)[C@H](CCCNC(=N)N)NC1=O
Ratio IC50 (Homo sapiens): 1.6 | IC50 (Integrin alpha-V/beta-8; read-out: IC50): 19 nM | IC50 (Integrin alpha-V/beta-6; read-out: IC50): 31 nM

SMILES: CC(C)C[C@@H]1NC(=O)[C@H](C)NC(=O)[C@@H]2CCCN2C(=O)[C@H]2CCCN2C(=O)[C@H](C)NC(=O)[C@H](CC(C)C)NC(=O)[C@H](CC(=O)O)NC(=O)CNC(=O)[C@H](CCCNC(=N)N)NC(=O)[C@H](C)NC1=O
IC50 (Integrin alpha-V/beta-8; read-out: IC50): 1110 nM | IC50 (Integrin alpha-V/beta-6; read-out: IC50): 69.9 nM

SMILES: CC(C)C[C@@H]1NC(=O)[C@H](C)NC(=O)[C@H](C)NC(=O)[C@@H]2CCCN2C(=O)[C@H]2CCCN2C(=O)[C@H](CC(C)C)NC(=O)[C@H](CC(=O)O)NC(=O)CNC(=O)[C@H](CCCNC(=N)N)NC(=O)[C@H](C)NC1=O
Ratio IC50 (Homo sapiens): 2.9 | IC50 (Integrin alpha-V/beta-8; read-out: IC50): 47.4 nM | IC50 (Integrin alpha-V/beta-6; read-out: IC50): 140 nM

SMILES: CC(C)C[C@@H]1NC(=O)[C@H](C)NC(=O)[C@H](CC(C)C)N(C)C(=O)[C@H]2CCCN2C(=O)[C@H](CC(C)C)NC(=O)[C@H](CC(=O)O)NC(=O)CNC(=O)[C@H](CCCNC(=N)N)NC1=O
Ratio IC50 (Homo sapiens): 5.3 | IC50 (Integrin alpha-V/beta-8; read-out: IC50): 34 nM | IC50 (Integrin alpha-V/beta-6; read-out: IC50): 180 nM

SMILES: CC(C)C[C@@H]1NC(=O)[C@H](C)NC(=O)[C@@H]2CCCN2C(=O)[C@@H](Cc2ccccc2)N(C)C(=O)[C@H](CC(C)C)NC(=O)[C@H](CC(=O)O)NC(=O)CNC(=O)[C@H](CCCNC(=N)N)NC1=O (cyclo(RGDL[dNMeF]PAL))
Ratio IC50 (Homo sapiens): 15

SMILES: CC(=O)NCCCCCCNC(=N)NCCC[C@@H]1NC(=O)[C@H](CC(C)C)NC(=O)CNC(=O)[C@@H]2CCCN2C(=O)[C@H]2CCCN2C(=O)[C@H](CC(C)C)NC(=O)[C@H](CC(=O)O)NC(=O)CNC1=O
IC50 (Integrin alpha-V/beta-8; read-out: IC50): 230 nM

SMILES: CC(C)C[C@H]1NC(=O)[C@H](CC(=O)O)NC(=O)CNC(=O)[C@H](CCCNC(=N)N)NC(=O)[C@H](Cc2ccccc2)NC(=O)[C@H](C)NC(=O)[C@@H]2CCCN2C(=O)[C@H]2CCCN2C1=O
IC50 (Integrin alpha-V/beta-8): Not Active | IC50 (Integrin alpha-V/beta-6; read-out: IC50): 559 nM

SMILES: CC(C)C[C@@H]1NC(=O)[C@H](CC(=O)O)NC(=O)CNC(=O)[C@H](CCCNC(=N)N)NC(=O)[C@H](C)NC(=O)[C@@H]2CCCN2C(=O)[C@H]2CCCN2C(=O)[C@H](CC(C)C)NC(=O)[C@H](C)NC(=O)[C@H](C)NC1=O (cyclo(RGDLAAL[dP]PA))
IC50 (Integrin alpha-V/beta-8; read-out: IC50): 88.6 nM

The remaining lines, values ahead:

IC50 (Integrin alpha-V/beta-8; read-out: IC50): 20 nM
SMILES: CC(=O)NCCCCCCN1C(=O)[C@H]2CCCN2C(=O)[C@H](CC(C)C)NC(=O)[C@H](CC(=O)O)NC(=O)CNC(=O)[C@H](CCCNC(=N)N)NC(=O)[C@H](CC(C)C)NC(=O)CNC(=O)[C@@H]1C

IC50 (Integrin alpha-V/beta-8; read-out: IC50): 8410 nM | IC50 (Integrin alpha-V/beta-6; read-out: IC50): 495 nM
SMILES: CC(C)C[C@@H]1NC(=O)[C@H](C)NC(=O)[C@@H]2CCCN2C(=O)[C@H]2CCCN2C(=O)[C@H](C)NC(=O)[C@H](CC(C)C)NC(=O)[C@H](CC(=O)O)NC(=O)[C@H]([C@@H](C)O)NC(=O)[C@H](CCCNC(=N)N)NC(=O)[C@H](C)NC1=O

IC50 (Integrin alpha-V/beta-8; read-out: IC50): 614 nM | IC50 (Integrin alpha-V/beta-6; read-out: IC50): 14.5 nM
SMILES: CC(C)C[C@@H]1NC(=O)[C@H](C)NC(=O)[C@H](C)NC(=O)[C@H](CC(C)C)NC(=O)[C@H](CC(=O)O)NC(=O)CNC(=O)[C@H](CCCNC(=N)N)NC(=O)[C@@H]2CCCN2C(=O)[C@H]2CCCN2C(=O)[C@H](C)NC1=O

Ratio IC50 (Homo sapiens): 1.7 | IC50 (Integrin alpha-V/beta-8; read-out: IC50): 166 nM | IC50 (Integrin alpha-V/beta-6; read-out: IC50): 274 nM
SMILES: CC(C)C[C@@H]1NC(=O)[C@H](CC(=O)O)NC(=O)CNC(=O)[C@H](CCCNC(=N)N)NC(=O)[C@H](C)NC(=O)[C@H](C)NC(=O)[C@H](C)NC(=O)[C@H](C)NC(=O)[C@@H]2CCCN2C(=O)[C@H]2CCCN2C1=O

Ratio IC50 (Homo sapiens): 5.6 | IC50 (Integrin alpha-V/beta-8; read-out: IC50): 7.32 nM | IC50 (Integrin alpha-V/beta-6; read-out: IC50): 40.7 nM
SMILES: CC(C)C[C@@H]1NC(=O)[C@H](CC(=O)O)NC(=O)CNC(=O)[C@H](CCCNC(=N)N)NC(=O)[C@H](CCCCN)NC(=O)[C@H](C)NC(=O)[C@@H]2CCCN2C(=O)[C@H]2CCCN2C1=O

IC50 (Integrin alpha-V/beta-8; read-out: IC50): 153 nM | IC50 (Integrin alpha-V/beta-6; read-out: IC50): 94.5 nM
SMILES: CC(C)C[C@@H]1NC(=O)[C@H](CC(=O)O)NC(=O)[C@H]([C@@H](C)O)NC(=O)[C@H](CCCNC(=N)N)NC(=O)[C@H](C)NC(=O)[C@H](CC(C)C)NC(=O)[C@@H]2CCCN2C(=O)[C@H]2CCCN2C(=O)[C@H](C)NC(=O)[C@H](C)NC1=O

Ratio IC50 (Homo sapiens): 15
SMILES: CC(C)C[C@@H]1NC(=O)[C@H](CO)NC(=O)[C@@H]2CCCN2C(=O)[C@H]2CCCN2C(=O)[C@H](CC(C)C)NC(=O)[C@H](CC(=O)O)NC(=O)CNC(=O)[C@H](CCCNC(=N)N)NC1=O (cyclo(RGDL[dP]PSL))

IC50 (Integrin alpha-V/beta-8; read-out: IC50): 467 nM | IC50 (Integrin alpha-V/beta-6): Not Active
SMILES: CC(C)[C@@H]1NC(=O)[C@H](CC(=O)O)NC(=O)CNC(=O)[C@H](CCCNC(=N)N)NC(=O)[C@H](Cc2ccccc2)NC(=O)[C@H](C)NC(=O)[C@@H]2CCCN2C(=O)[C@H]2CCCN2C1=O

IC50 (Integrin alpha-V/beta-8; read-out: IC50): 3080 nM | IC50 (Integrin alpha-V/beta-6; read-out: IC50): 1550 nM
SMILES: CC(C)C[C@@H]1NC(=O)[C@H](C)NC(=O)[C@H](C)NC(=O)[C@H](CC(C)C)NC(=O)[C@H](CC(=O)O)NC(=O)[C@H]([C@@H](C)O)NC(=O)[C@H](CCCNC(=N)N)NC(=O)[C@@H]2CCCN2C(=O)[C@H]2CCCN2C(=O)[C@H](C)NC1=O

IC50 (Integrin alpha-V/beta-8; read-out: IC50): 109 nM | IC50 (Integrin alpha-V/beta-6; read-out: IC50): 13.4 nM
SMILES: CC(C)C[C@@H]1NC(=O)[C@H](CC(=O)O)NC(=O)CNC(=O)[C@H](CCCNC(=N)N)NC(=O)[C@H](C)NC(=O)[C@H](CC(C)C)NC(=O)[C@@H]2CCCN2C(=O)[C@H]2CCCN2C(=O)[C@H](C)NC(=O)[C@H](C)NC1=O

IC50 (Integrin alpha-V/beta-8; read-out: IC50): 27 nM
SMILES: CC(=O)NCCCCN1C(=O)[C@H]2CCCN2C(=O)[C@H](CC(C)C)NC(=O)[C@H](CC(=O)O)NC(=O)CNC(=O)[C@H](CCCNC(=N)N)NC(=O)[C@H](CC(C)C)NC(=O)CNC(=O)[C@@H]1C

IC50 (Integrin alpha-V/beta-8): Not Active | IC50 (Integrin alpha-V/beta-6): Not Active
SMILES: CC(C)C[C@@H]1NC(=O)[C@H](CC(=O)O)NC(=O)[C@@H]([C@H](C)O)NC(=O)[C@H](CCCNC(=N)N)NC(=O)[C@H](Cc2ccccc2)NC(=O)[C@H](C)NC(=O)[C@@H]2CCCN2C(=O)[C@H]2CCCN2C1=O

IC50 (Integrin alpha-V/beta-8; read-out: IC50): 4340 nM | IC50 (Integrin alpha-V/beta-6; read-out: IC50): 826 nM
SMILES: C[C@@H]1NC(=O)[C@@H]2CCCN2C(=O)[C@H]2CCCN2C(=O)[C@H](CCCCN)NC(=O)[C@H](CC(=O)O)NC(=O)CNC(=O)[C@H](CCCNC(=N)N)NC(=O)[C@H](Cc2ccccc2)NC1=O

Ratio IC50 (Homo sapiens): 2.1 | IC50 (Integrin alpha-V/beta-8; read-out: IC50): 197 nM
SMILES: CC(C)C[C@@H]1NC(=O)[C@H](CC(=O)O)NC(=O)CNC(=O)[C@H](CCCNC(=N)N)NC(=O)[C@H](C)NC(=O)[C@@H]2CCCN2C(=O)[C@H]2CCCN2C1=O (cyclo(ARGDL[dP]P))
